Data on one molecule can be found in patent US20200085864A1, “Stannous Fluoride Sugar Alcohol Solid Solutions” (WhiteHill Life Sciences, LLC, priority 2018, published 2020).

The conditions of this data set: aqueous SnF2.

Take `[F][Sn][F]` [Stannous fluoride]: the “Natural pH of stannous fluoride” value is recorded as “about 3.2”.
